Source: EP2282358A1, “Host material for light-emitting devices” (Solvay SA, priority 2009, dated 2011)
Where two headings read alike, the source gives them in different places.

Tests used:
[1] = Solubility tests in organic solvents; type: physicochemical; conditions: for solubilities toward chlorobenzene and toluene: result in words
[2] = HOMO and LUMO measurement (cyclic voltammetry and optical energy gap); type: physicochemical; conditions: for HOMO: estimated from the LUMO level and the optical energy gap (UV-visible absorption onset); for LUMO: from peak potential of 1st reduction wave, cyclic voltammetry in anhydrous tetrahydrofuran, ferrocene internal standard
Protocol: The LUMO (lowest unoccupied molecular orbital) levels are estimated from cyclic voltammetry. Voltammetric measurements are performed using a PC-controlled Autolab PGSTAT128N electrochemical workstation coupled with a 663 VA Stand measure unit. Cyclic voltammograms are recorded at room temperature under an argon atmosphere in anhydrous tetrahydrofuran using 0.1 M tetrabutylammonium hexafluorophosphate (Fluka electrochemical grade) as supporting electrolyte. The working electrode is a glassy carbon disk and the counter electrode is a platinum wire or a glassy carbon rod. A silver/silver chloride electrode filled with a methanolic saturated KCl solution or a platinum wire pseudo-reference has been used as reference electrode. The sample solutions (0.5 mM) are outgassed with argon for 10 minutes before measurement. Measurements are performed with a sweep rate fixed to 0.1 V/s. Ferrocene is used as internal standard.
The LUMO level is estimated from the peak potential of the 1st observed reduction wave (E1 reduct.) using the following equation: ELUMO -(-4.8) = -[E1 reduct-EOX ½(Fc/(Fc)^+)] [formula] where EHOMO (ferrocene) has been taken equal to -4.8 eV below the vacuum level and EOX ½ (Fc/Fc^+) corresponds to the half-wave oxidation potential of the ferrocene internal standard.
The HOMO level could not be estimated directly from CV measurements because the 1st oxidation wave lies beyond the stability window of the two tested solvents (tetrahydrofuran and dichloromethane). The HOMO level is thus estimated from the LUMO level and optical energy gap (Eopt g): EHOMO = ELUMO -Eopt g , [formula] the optical energy gap being determined from the absorption onset in the UV-visible absorption spectrum.

HOMO [2] [eV] | LUMO [2] [eV] | Solubility in chlorobenzene [1] [wt%] | Solubility in toluene [1] | solubility for most organic solvents [1] | Compound | solubilities toward chlorobenzene and toluene [1] | Solubility in chlorobenzene ([1]; solvent chlorobenzene) [wt%] | Solubility in toluene ([1]; solvent toluene) [wt%]
-6.0 | -2.3 | < 1.5 | Not soluble | lacks solubility | CC(C)(C)c1ccc(-c2nnc(-c3cccc(-c4nnc(-c5ccc(C(C)(C)C)cc5)o4)c3)o2)cc1 [OXD7, reference compound] | – | – | –
-6.0 | -2.3 | – | – | – | CC(C)(C)c1ccc(-c2nnc(-c3cc(-c4nnc(-c5ccc(C(C)(C)C)cc5)o4)cc(C(C)(C)C)c3)o2)cc1 [tBu-OXD7] | good solubilities | > 7.2 | > 5

Compound | HOMO [2] [eV] | LUMO [2] [eV] | Solubility in chlorobenzene [1] [wt%] | Solubility in toluene [1] | solubility for most organic solvents [1] | solubilities toward chlorobenzene and toluene [1] | Solubility in chlorobenzene ([1]; solvent chlorobenzene) [wt%] | Solubility in toluene ([1]; solvent toluene) [wt%]
CC(C)(C)c1ccc(-c2nnc(-c3cc(-c4nnc(-c5ccc(C(C)(C)C)cc5)o4)cc(C(F)(F)C(F)(F)C(F)(F)C(F)(F)C(F)(F)C(F)(F)F)c3)o2)cc1 [Formula C6F13-OXD7] | -6.1 | -2.5 | – | – | – | good solubilities | > 4.5 | 2.5
